Assay results as given in ChEMBL document CHEMBL1201862, “PubChem BioAssay data set” (2004).
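All cell lines were grown in 96-well plates and treated with compound for 48 hours. Here, GI50 denotes the concentration required for 50% inhibition of growth.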 The source made the active and inactive calls. Rule as the data show it: active = GI50 up to about 1.1 µM and inactive = higher.

Columns and labels:
Test in all cases: growth of human tumour cells (NCI), 48 h
[1] = test system: COLO 205
[2] = test system: LOX IMVI
[3] = test system: KM12
[4] = test system: DLD-1
[5] = test system: EKVX
[6] = test system: NCI-H226
[7] = test system: SR
[8] = test system: SF-295
[9] = test system: OVCAR-4
[10] = test system: OVCAR-8
[11] = test system: SK-MEL-2
[12] = test system: M14
[13] = test system: NCI-H522
[14] = test system: HOP-62
[15] = test system: CAKI-1
[16] = test system: ACHN
[17] = test system: SK-MEL-28
[18] = test system: RPMI-8226
[19] = test system: HT-29
[20] = test system: HCT-15
[21] = test system: SNB-19
[22] = test system: RXF 631
[23] = test system: NCI-H23
[24] = test system: RXF 393
[25] = test system: CCRF-CEM
[26] = test system: SF-268
[27] = test system: 786-0
[28] = test system: HL-60
[29] = test system: TK-10
[30] = test system: HCC 2998
[31] = test system: A549
[32] = test system: HCT-116
[33] = test system: UACC-62
[34] = test system: NCI-H460
[35] = test system: U-251
[36] = test system: DMS-273
[37] = test system: SNB-78
[38] = test system: M19-MEL
[39] = test system: OVCAR-3
[40] = test system: IGROV-1
[41] = test system: SF-539
[42] = test system: UACC-257
[43] = test system: DMS-114
[44] = test system: HOP-18
[45] = test system: UO-31
[46] = test system: KM-20L2
[47] = test system: SW-620
[48] = test system: MOLT-4
[49] = test system: SN12C
[50] = test system: OVCAR-5
[51] = test system: SK-OV-3
[52] = test system: LXFL 529
[53] = test system: XF498
[54] = test system: Malme-3M
[55] = test system: K562
[56] = test system: SK-MEL-5
[57] = test system: HOP-92
[58] = test system: SNB-75
[59] = test system: A498

Compound: CCOC(=O)c1cc(-c2ccc(-c3cc(C(=O)OCC)c(C#N)c(N)c3C#N)cc2)c(C#N)c(N)c1C#N
- GI50 [1]: > 100 µM (inactive)
- GI50 [2]: > 100 µM (inactive)
- GI50 [3]: > 100 µM (inactive)
- GI50 [4]: > 100 µM (inactive)
- GI50 [5]: > 100 µM (inactive)
- GI50 [6]: > 100 µM (inactive)
- GI50 [7]: > 100 µM (inactive)
- GI50 [8]: > 100 µM (inactive)
- GI50 [9]: > 100 µM (inactive)
- GI50 [10]: > 100 µM (inactive)
- GI50 [11]: > 100 µM (inactive)
- GI50 [12]: > 100 µM (inactive)
- GI50 [13]: > 100 µM (inactive)
- GI50 [14]: > 100 µM (inactive)
- GI50 [15]: > 100 µM (inactive)
- GI50 [16]: > 100 µM (inactive)
- GI50 [17]: > 100 µM (inactive)
- GI50 [18]: > 100 µM (inactive)
- GI50 [19]: > 100 µM (inactive)
- GI50 [20]: > 100 µM
- GI50 [21]: > 100 µM (inactive)
- GI50 [22]: > 100 µM (inactive)
- GI50 [23]: > 100 µM (inactive)
- GI50 [24]: > 100 µM (inactive)
- GI50 [25]: > 100 µM (inactive)
- GI50 [26]: > 100 µM (inactive)
- GI50 [27]: > 100 µM (inactive)
- GI50 [28]: > 100 µM (inactive)
- GI50 [29]: > 100 µM (inactive)
- GI50 [30]: > 100 µM (inactive)
- GI50 [31]: > 100 µM (inactive)
- GI50 [32]: > 100 µM (inactive)
- GI50 [33]: > 100 µM (inactive)
- GI50 [34]: > 100 µM (inactive)
- GI50 [35]: > 100 µM (inactive)
- GI50 [36]: > 100 µM (inactive)
- GI50 [37]: > 100 µM (inactive)
- GI50 [38]: > 100 µM (inactive)
- GI50 [39]: > 100 µM (inactive)
- GI50 [40]: > 100 µM (inactive)
- GI50 [41]: > 100 µM (inactive)
- GI50 [42]: > 100 µM (inactive)
- GI50 [43]: > 100 µM (inactive)
- GI50 [44]: > 100 µM (inactive)
- GI50 [45]: > 100 µM (inactive)
- GI50 [46]: > 100 µM (inactive)
- GI50 [47]: > 100 µM (inactive)
- GI50 [48]: > 100 µM (inactive)
- GI50 [49]: > 100 µM (inactive)
- GI50 [50]: > 100 µM (inactive)
- GI50 [51]: > 100 µM (inactive)
- GI50 [52]: > 100 µM (inactive)
- GI50 [53]: > 100 µM (inactive)
- GI50 [54]: > 100 µM (inactive)
- GI50 [55]: > 100000 nM (inactive)

Compound: COc1ccc2nc3cccc(C(=O)NCCN(C)C)c3nc2c1
- GI50 [1]: 1.75 µM (inactive)
- GI50 [2]: 0.64 µM (active)
- GI50 [3]: 1.3 µM (inactive)
- GI50 [4]: 1.37 µM (inactive)
- GI50 [5]: 3.06 µM (inactive)
- GI50 [6]: 1.32 µM (inactive)
- GI50 [7]: 0.264 µM (active)
- GI50 [8]: 2.08 µM (inactive)
- GI50 [9]: 1.63 µM (inactive)
- GI50 [10]: 1.46 µM (inactive)
- GI50 [11]: 1.59 µM (inactive)
- GI50 [12]: 2.28 µM (inactive)
- GI50 [13]: 2.73 µM (inactive)
- GI50 [14]: 1.45 µM (inactive)
- GI50 [16]: 0.689 µM (active)
- GI50 [56]: 2.04 µM (inactive)
- GI50 [17]: 2.25 µM (inactive)
- GI50 [18]: 0.824 µM (active)
- GI50 [19]: 0.632 µM (active)
- GI50 [20]: 1.43 µM
- GI50 [21]: 2.84 µM (inactive)
- GI50 [22]: 3.17 µM (inactive)
- GI50 [23]: 1.41 µM (inactive)
- GI50 [24]: 1.55 µM (inactive)
- GI50 [27]: 2.25 µM (inactive)
- GI50 [28]: 1.08 µM (active)
- GI50 [29]: 2 µM (inactive)
- GI50 [57]: 5.13 µM (inactive)
- GI50 [30]: 1.85 µM (inactive)
- GI50 [31]: 1.8 µM (inactive)
- GI50 [32]: 0.512 µM (active)
- GI50 [33]: 2.24 µM (inactive)
- GI50 [35]: 2.57 µM (inactive)
- GI50 [36]: 1.44 µM (inactive)
- GI50 [58]: 2.15 µM (inactive)
- GI50 [37]: 2.88 µM (inactive)
- GI50 [38]: 1.64 µM (inactive)
- GI50 [39]: 2.08 µM (inactive)
- GI50 [40]: 2.67 µM (inactive)
- GI50 [41]: 2.1 µM (inactive)
- GI50 [42]: 2.64 µM (inactive)
- GI50 [43]: 1.29 µM (inactive)
- GI50 [44]: 3.19 µM (inactive)
- GI50 [45]: 2.45 µM (inactive)
- GI50 [46]: 2.2 µM (inactive)
- GI50 [47]: 0.573 µM (active)
- GI50 [48]: 0.187 µM (active)
- GI50 [49]: 1.39 µM (inactive)
- GI50 [59]: 1.55 µM (inactive)
- GI50 [50]: 1.51 µM (inactive)
- GI50 [51]: 4.09 µM (inactive)
- GI50 [52]: 1.26 µM (inactive)
- GI50 [53]: 0.292 µM (active)
- GI50 [54]: 0.571 µM (active)
- GI50 [55]: 794 nM (active)

Compound: CN(C)C(=O)/N=c1\ss/c(=N\C(=S)N(C)C)n1-c1ccccc1
- GI50 [1]: 35.3 µM (inactive)
- GI50 [2]: 3.53 µM (inactive)
- GI50 [3]: 57.5 µM (inactive)
- GI50 [4]: 26.6 µM (inactive)
- GI50 [5]: > 63.5 µM (inactive)
- GI50 [6]: 27.2 µM (inactive)
- GI50 [7]: 10 µM (inactive)
- GI50 [8]: 40.2 µM (inactive)
- GI50 [9]: 16.8 µM (inactive)
- GI50 [10]: 20.9 µM (inactive)
- GI50 [11]: > 57 µM (inactive)
- GI50 [12]: 20 µM (inactive)
- GI50 [13]: < 0.01 µM (active)
- GI50 [14]: > 68.9 µM (inactive)
- GI50 [15]: > 100 µM (inactive)
- GI50 [16]: 23 µM (inactive)
- GI50 [56]: 29.6 µM (inactive)
- GI50 [17]: 18.1 µM (inactive)
- GI50 [18]: 17 µM (inactive)
- GI50 [20]: 15 µM
- GI50 [21]: 35.6 µM (inactive)
- GI50 [22]: 36.1 µM (inactive)
- GI50 [23]: 18.7 µM (inactive)
- GI50 [24]: 38.4 µM (inactive)
- GI50 [25]: 0.184 µM (active)
- GI50 [26]: 25.6 µM (inactive)
- GI50 [27]: 19.6 µM (inactive)
- GI50 [28]: 8.34 µM (inactive)
- GI50 [29]: 31.4 µM (inactive)
- GI50 [57]: > 51.4 µM (inactive)
- GI50 [30]: > 100 µM (inactive)
- GI50 [31]: 35.5 µM (inactive)
- GI50 [32]: 13.5 µM (inactive)
- GI50 [33]: 14.4 µM (inactive)
- GI50 [34]: 17 µM (inactive)
- GI50 [35]: 27 µM (inactive)
- GI50 [36]: 0.125 µM (active)
- GI50 [58]: 13.8 µM (inactive)
- GI50 [37]: 65.8 µM (inactive)
- GI50 [38]: 31.9 µM (inactive)
- GI50 [39]: 21.2 µM (inactive)
- GI50 [40]: 29.4 µM (inactive)
- GI50 [41]: 35.4 µM (inactive)
- GI50 [42]: 15.5 µM (inactive)
- GI50 [43]: 10.3 µM (inactive)
- GI50 [44]: > 10 µM (inactive)
- GI50 [45]: 33 µM (inactive)
- GI50 [46]: 54 µM (inactive)
- GI50 [47]: 28.3 µM (inactive)
- GI50 [48]: 7.78 µM (inactive)
- GI50 [49]: 45.8 µM (inactive)
- GI50 [59]: 56.8 µM (inactive)
- GI50 [50]: > 90.2 µM (inactive)
- GI50 [51]: > 100 µM (inactive)
- GI50 [52]: 7.55 µM (inactive)
- GI50 [53]: 43.7 µM (inactive)
- GI50 [54]: 42.9 µM (inactive)
- GI50 [55]: 294 nM (active)
